Test results: patent publication US9867826B2, “Heterocycles as modulators of kinase activity” (Merck Patent GmbH, priority 2013, dated 2018)

Key:
His-AKT (Full Length) = His-AKT (Full Length) (Homo sapiens (Human), UniProt P31749); assay: AKT enzyme assay; type: biochemical; conditions: 160 uM ATP
Description: A TTP Mosquito liquid handling instrument was used to place 125 nl of the appropriate concentration of inhibitor in 100% DMSO (for a dose response curve calculation) into each well of a 384-well plate. To this reaction components were added to a final volume of 12.5 μl: • 0.1 ng/μl His-AKT (Full Length), (Invitrogen, Part # P2999, Lot #641228C). • 160 uM ATP (Fluka, 02055) • 1 mM DTT (Sigma, D0632) • 1 mM MgCl2 (Sigma, M1028) • 1 μM substrate peptide (sequence FITC-AHA-GRPRTSSFAEG-NH2), synthesized by Tufts Peptide Synthesis service. • 100 mM HEPES pH 7.5 (Calbiochem, 391338) • 0.015% Brij-35 (Sigma, B4184)
The reaction was incubated for 90 min at 25 C., and then stopped by the addition of 70 μl of Stop buffer (100 mM HEPES pH 7.5, 0.015% Brij-35, 10 mM EDTA (Sigma, E7889)).
The plate was read on a Caliper LC 3000 in an Off-Chip mobility shift assay format, using the following parameters for a 12-sipper chip: screening pressure −2.3 psi, upstream voltage −500, and downstream voltage −3000. These conditions caused unphosphorylated substrate and phosphorylated product peptide to resolve as separate peaks allowing direct measurement of percentage of conversion of substrate to product.
The percent conversion was plotted against concentration of inhibitor to produce a sigmoidal dose response curve, from which an IC50 was calculated.

P70S6K (T412E mutant) = P70S6K (T412E mutant) (Homo sapiens (Human), UniProt P23443, T412E); assay: P70S6K enzyme assay; type: biochemical; conditions: 24 μM ATP
P70S6K (T412E mutant), sequence (P23443 whole entry T412E): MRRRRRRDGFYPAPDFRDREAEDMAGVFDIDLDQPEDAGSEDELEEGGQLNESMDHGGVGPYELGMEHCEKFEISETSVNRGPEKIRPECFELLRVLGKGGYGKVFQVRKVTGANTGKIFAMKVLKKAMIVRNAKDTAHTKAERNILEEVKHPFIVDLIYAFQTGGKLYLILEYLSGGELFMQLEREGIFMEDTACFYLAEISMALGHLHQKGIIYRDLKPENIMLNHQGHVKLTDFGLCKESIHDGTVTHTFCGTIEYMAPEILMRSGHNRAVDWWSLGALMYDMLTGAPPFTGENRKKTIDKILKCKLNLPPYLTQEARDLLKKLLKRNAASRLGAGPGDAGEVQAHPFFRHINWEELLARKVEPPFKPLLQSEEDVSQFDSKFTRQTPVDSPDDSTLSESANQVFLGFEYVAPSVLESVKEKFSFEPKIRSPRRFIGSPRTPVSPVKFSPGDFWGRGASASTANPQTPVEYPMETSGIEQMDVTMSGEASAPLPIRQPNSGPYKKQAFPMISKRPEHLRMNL
Description: P70S6K inhibitor compounds were diluted and plated in 96 well plates. A reaction mixture including the following components was then added to the compound plate to initiate the enzyme reaction; P70S6K (3 nM, T412E mutant, Millipore) was mixed with 24 μM ATP in an assay buffer containing 100 mM Hepes (pH 7.5), 5 mM MgCl2, 1 mM DTT, 0.015% Brij and 1 μM of the substrate peptide FITC-AHA-AKRRRLSSLRA-OH (derived from the S6 ribosomal protein sequence, FITC=fluorescein isothiocyanate, AHA=6-aminohexanoic acid). The reaction was incubated for 90 min at 25° C., before the addition of 10 mM EDTA to stop the reaction. The proportion of substrate and product (phosphorylated) peptide was analysed on a Caliper Life Sciences Lab Chip 3000, using a pressure of −1.4 psi, and upstream and downstream voltages of −3000 and −700 respectively. Product peaks were resolved before substrate peaks on the resulting chromatograms.

His-AKT (Full Length), sequence (P31749 whole entry): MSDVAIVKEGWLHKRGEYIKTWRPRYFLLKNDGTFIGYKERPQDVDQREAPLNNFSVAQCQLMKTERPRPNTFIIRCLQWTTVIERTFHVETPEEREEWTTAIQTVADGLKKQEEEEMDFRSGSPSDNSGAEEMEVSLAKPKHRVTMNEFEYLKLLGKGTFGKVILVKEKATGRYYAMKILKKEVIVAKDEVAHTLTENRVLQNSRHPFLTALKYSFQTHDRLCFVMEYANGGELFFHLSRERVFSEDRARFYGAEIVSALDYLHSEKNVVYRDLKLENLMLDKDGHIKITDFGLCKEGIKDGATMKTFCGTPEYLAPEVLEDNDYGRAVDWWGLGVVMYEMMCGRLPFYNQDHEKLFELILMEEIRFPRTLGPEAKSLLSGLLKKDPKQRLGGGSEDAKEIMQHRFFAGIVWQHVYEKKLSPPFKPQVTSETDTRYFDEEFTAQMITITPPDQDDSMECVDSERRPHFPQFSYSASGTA

| IC50 (His-AKT (Full Length)) | IC50 (P70S6K (T412E mutant)) | SMILES |
| --- | --- | --- |
| > 0.01 µM | > 0.01 µM | Cc1cc(-c2cn(CCN3CCC3)c(C3CCN(c4ncnc(N)c4C(N)=O)CC3(F)F)n2)ccc1F (stereo not shown) [Compound 49, 4-Amino-6-{4-[1-(2-azetidin-1-yl-ethyl)-4-(4-fluoro-3-methyl-phenyl)-1H-imidazol-2-yl]-3,3-difluoro-piperidin-1-yl}-pyrimidine-5-carboxylic acid amide] |
| 0.001 to 0.01 µM | 0.001 to 0.01 µM | Cc1cc(-c2cn(CCN3CCC3)c(C3CCN(c4ncnc(N)c4C(C)C)CC3(F)F)n2)ccc1F (stereo not shown) [Compound 50, 6-{4-[1-(2-Azetidin-1-yl-ethyl)-4-(4-fluoro-3-methyl-phenyl)-1H-imidazol-2-yl]-3,3-difluoro-piperidin-1-yl}-5-isopropyl-pyrimidin-4-ylamine] |
